{"source": "patent US20230157952A1", "about": "“METHOD FOR IMPROVING THE STABILITY OF A PHARMACEUTICAL COMPOSITION COMPRISING A HIGH PENETRATION DRUG, AND THE PHARMACEUTICAL COMPOSITION OBTAINED THEREFROM” (Techfields Inc., priority 2020, published 2023)", "key": {"[1]": {"test": "Effect of concentration on the stability of the solution (purity over time)", "details": "at 5° C. in 15% acetone"}, "[2]": {"test": "Effect of temperature (and pH) on the stability of the solution (purity)", "format": "physicochemical", "details": "7% solution in water"}}}
{"compound": "CCN(CC)CCOC(=O)c1cc(-c2ccc(F)cc2F)ccc1OC(C)=O.Cl", "note": "[2-(diethylamino)ethyl 5-(2,4-difluorophenyl)-2-acetoxybenzoate•HCl]", "values": [{"measurement": "Purity at day 0", "setting": "[1]; 0.01 wt %", "value": 98.2, "unit": "%"}, {"measurement": "Purity at day 3", "setting": "[1]; 0.01 wt %", "value": 93.9, "unit": "%"}, {"measurement": "Purity at day 7", "setting": "[1]; 0.01 wt %", "value": 88.1, "unit": "%"}, {"measurement": "Purity at day 15", "setting": "[1]; 0.01 wt %", "value": 80.3, "unit": "%"}, {"measurement": "Purity at day 22", "setting": "[1]; 0.01 wt %", "value": 73.7, "unit": "%"}, {"measurement": "Purity at day 28", "setting": "[1]; 0.01 wt %", "value": 67.9, "unit": "%"}, {"measurement": "Purity at day 60", "setting": "[1]; 0.01 wt %", "value": 48.1, "unit": "%"}, {"measurement": "Purity at day 90", "setting": "[1]; 0.01 wt %", "value": 30.0, "unit": "%"}, {"measurement": "Purity at day 0", "setting": "[1]; 0.1 wt %", "value": 98.3, "unit": "%"}, {"measurement": "Purity at day 3", "setting": "[1]; 0.1 wt %", "value": 95.1, "unit": "%"}, {"measurement": "Purity at day 7", "setting": "[1]; 0.1 wt %", "value": 93.1, "unit": "%"}, {"measurement": "Purity at day 15", "setting": "[1]; 0.1 wt %", "value": 89.0, "unit": "%"}, {"measurement": "Purity at day 22", "setting": "[1]; 0.1 wt %", "value": 85.3, "unit": "%"}, {"measurement": "Purity at day 28", "setting": "[1]; 0.1 wt %", "value": 82.3, "unit": "%"}, {"measurement": "Purity at day 60", "setting": "[1]; 0.1 wt %", "value": 70.5, "unit": "%"}, {"measurement": "Purity at day 90", "setting": "[1]; 0.1 wt %", "value": 61.2, "unit": "%"}, {"measurement": "Purity at day 0", "setting": "[1]; 1 wt %", "value": 98.4, "unit": "%"}, {"measurement": "Purity at day 3", "setting": "[1]; 1 wt %", "value": 97.0, "unit": "%"}, {"measurement": "Purity at day 7", "setting": "[1]; 1 wt %", "value": 95.9, "unit": "%"}, {"measurement": "Purity at day 15", "setting": "[1]; 1 wt %", "value": 94.0, "unit": "%"}, {"measurement": "Purity at day 22", "setting": "[1]; 1 wt %", "value": 92.2, "unit": "%"}, {"measurement": "Purity at day 28", "setting": "[1]; 1 wt %", "value": 89.7, "unit": "%"}, {"measurement": "Purity at day 60", "setting": "[1]; 1 wt %", "value": 79.4, "unit": "%"}, {"measurement": "Purity at day 90", "setting": "[1]; 1 wt %", "value": 71.9, "unit": "%"}, {"measurement": "Purity at day 0", "setting": "[1]; 3 wt %", "value": 98.5, "unit": "%"}, {"measurement": "Purity at day 3", "setting": "[1]; 3 wt %", "value": 97.7, "unit": "%"}, {"measurement": "Purity at day 7", "setting": "[1]; 3 wt %", "value": 96.6, "unit": "%"}, {"measurement": "Purity at day 15", "setting": "[1]; 3 wt %", "value": 94.9, "unit": "%"}, {"measurement": "Purity at day 22", "setting": "[1]; 3 wt %", "value": 92.1, "unit": "%"}, {"measurement": "Purity at day 28", "setting": "[1]; 3 wt %", "value": 91.2, "unit": "%"}, {"measurement": "Purity at day 60", "setting": "[1]; 3 wt %", "value": 84.4, "unit": "%"}, {"measurement": "Purity at day 90", "setting": "[1]; 3 wt %", "value": 79.2, "unit": "%"}, {"measurement": "Purity at day 0", "setting": "[1]; 5 wt %", "value": 98.6, "unit": "%"}, {"measurement": "Purity at day 3", "setting": "[1]; 5 wt %", "value": 98.2, "unit": "%"}, {"measurement": "Purity at day 7", "setting": "[1]; 5 wt %", "value": 97.8, "unit": "%"}, {"measurement": "Purity at day 15", "setting": "[1]; 5 wt %", "value": 97.3, "unit": "%"}, {"measurement": "Purity at day 22", "setting": "[1]; 5 wt %", "value": 96.1, "unit": "%"}, {"measurement": "Purity at day 28", "setting": "[1]; 5 wt %", "value": 95.5, "unit": "%"}, {"measurement": "Purity at day 60", "setting": "[1]; 5 wt %", "value": 94.5, "unit": "%"}, {"measurement": "Purity at day 90", "setting": "[1]; 5 wt %", "value": 93.9, "unit": "%"}, {"measurement": "Purity at day 0", "setting": "[1]; 7 wt %", "value": 98.7, "unit": "%"}, {"measurement": "Purity at day 3", "setting": "[1]; 7 wt %", "value": 98.4, "unit": "%"}, {"measurement": "Purity at day 7", "setting": "[1]; 7 wt %", "value": 98.4, "unit": "%"}, {"measurement": "Purity at day 15", "setting": "[1]; 7 wt %", "value": 98.0, "unit": "%"}, {"measurement": "Purity at day 22", "setting": "[1]; 7 wt %", "value": 97.5, "unit": "%"}, {"measurement": "Purity at day 28", "setting": "[1]; 7 wt %", "value": 97.2, "unit": "%"}, {"measurement": "Purity at day 60", "setting": "[1]; 7 wt %", "value": 96.2, "unit": "%"}, {"measurement": "Purity at day 90", "setting": "[1]; 7 wt %", "value": 95.8, "unit": "%"}, {"measurement": "Purity at day 0", "setting": "[1]; 8 wt %", "value": 98.6, "unit": "%"}, {"measurement": "Purity at day 3", "setting": "[1]; 8 wt %", "value": 98.5, "unit": "%"}, {"measurement": "Purity at day 7", "setting": "[1]; 8 wt %", "value": 98.3, "unit": "%"}, {"measurement": "Purity at day 15", "setting": "[1]; 8 wt %", "value": 98.1, "unit": "%"}, {"measurement": "Purity at day 22", "setting": "[1]; 8 wt %", "value": 97.4, "unit": "%"}, {"measurement": "Purity at day 28", "setting": "[1]; 8 wt %", "value": 97.1, "unit": "%"}, {"measurement": "Purity at day 60", "setting": "[1]; 8 wt %", "value": 96.0, "unit": "%"}, {"measurement": "Purity at day 90", "setting": "[1]; 8 wt %", "value": 95.9, "unit": "%"}, {"measurement": "Purity at day 0", "setting": "[1]; 10 wt %", "value": 98.7, "unit": "%"}, {"measurement": "Purity at day 3", "setting": "[1]; 10 wt %", "value": 98.5, "unit": "%"}, {"measurement": "Purity at day 7", "setting": "[1]; 10 wt %", "value": 98.5, "unit": "%"}, {"measurement": "Purity at day 15", "setting": "[1]; 10 wt %", "value": 98.2, "unit": "%"}, {"measurement": "Purity at day 22", "setting": "[1]; 10 wt %", "value": 97.7, "unit": "%"}, {"measurement": "Purity at day 28", "setting": "[1]; 10 wt %", "value": 97.3, "unit": "%"}, {"measurement": "Purity at day 60", "setting": "[1]; 10 wt %", "value": 96.7, "unit": "%"}, {"measurement": "Purity at day 90", "setting": "[1]; 10 wt %", "value": 96.1, "unit": "%"}, {"measurement": "Purity at day 0", "setting": "[1]; 15 wt %", "value": 98.6, "unit": "%"}, {"measurement": "Purity at day 3", "setting": "[1]; 15 wt %", "value": 98.4, "unit": "%"}, {"measurement": "Purity at day 7", "setting": "[1]; 15 wt %", "value": 98.4, "unit": "%"}, {"measurement": "Purity at day 15", "setting": "[1]; 15 wt %", "value": 98.3, "unit": "%"}, {"measurement": "Purity at day 22", "setting": "[1]; 15 wt %", "value": 97.5, "unit": "%"}, {"measurement": "Purity at day 28", "setting": "[1]; 15 wt %", "value": 97.2, "unit": "%"}, {"measurement": "Purity at day 60", "setting": "[1]; 15 wt %", "value": 96.5, "unit": "%"}, {"measurement": "Purity at day 90", "setting": "[1]; 15 wt %", "value": 96.2, "unit": "%"}, {"measurement": "Purity at day 0", "setting": "[1]; 20 wt %", "value": 98.7, "unit": "%"}, {"measurement": "Purity at day 3", "setting": "[1]; 20 wt %", "value": 98.5, "unit": "%"}, {"measurement": "Purity at day 7", "setting": "[1]; 20 wt %", "value": 98.5, "unit": "%"}, {"measurement": "Purity at day 15", "setting": "[1]; 20 wt %", "value": 98.3, "unit": "%"}, {"measurement": "Purity at day 22", "setting": "[1]; 20 wt %", "value": 98.0, "unit": "%"}, {"measurement": "Purity at day 28", "setting": "[1]; 20 wt %", "value": 97.1, "unit": "%"}, {"measurement": "Purity at day 60", "setting": "[1]; 20 wt %", "value": 96.6, "unit": "%"}, {"measurement": "Purity at day 90", "setting": "[1]; 20 wt %", "value": 96.0, "unit": "%"}, {"measurement": "Purity at day 0", "setting": "[1]; 30 wt %", "value": 98.5, "unit": "%"}, {"measurement": "Purity at day 3", "setting": "[1]; 30 wt %", "value": 98.5, "unit": "%"}, {"measurement": "Purity at day 7", "setting": "[1]; 30 wt %", "value": 98.4, "unit": "%"}, {"measurement": "Purity at day 15", "setting": "[1]; 30 wt %", "value": 98.1, "unit": "%"}, {"measurement": "Purity at day 22", "setting": "[1]; 30 wt %", "value": 97.9, "unit": "%"}, {"measurement": "Purity at day 28", "setting": "[1]; 30 wt %", "value": 97.3, "unit": "%"}, {"measurement": "Purity at day 60", "setting": "[1]; 30 wt %", "value": 96.7, "unit": "%"}, {"measurement": "Purity at day 90", "setting": "[1]; 30 wt %", "value": 96.2, "unit": "%"}, {"measurement": "Purity at day 0", "setting": "[1]; 50 wt %", "value": 98.7, "unit": "%"}, {"measurement": "Purity at day 3", "setting": "[1]; 50 wt %", "value": 98.7, "unit": "%"}, {"measurement": "Purity at day 7", "setting": "[1]; 50 wt %", "value": 98.5, "unit": "%"}, {"measurement": "Purity at day 15", "setting": "[1]; 50 wt %", "value": 98.3, "unit": "%"}, {"measurement": "Purity at day 22", "setting": "[1]; 50 wt %", "value": 97.8, "unit": "%"}, {"measurement": "Purity at day 28", "setting": "[1]; 50 wt %", "value": 97.2, "unit": "%"}, {"measurement": "Purity at day 60", "setting": "[1]; 50 wt %", "value": 96.9, "unit": "%"}, {"measurement": "Purity at day 90", "setting": "[1]; 50 wt %", "value": 96.3, "unit": "%"}, {"measurement": "Stability when the concentration is 0.1% or lower", "setting": "[1]", "value": "not stable"}, {"measurement": "Stability of the solution at a temperature higher than 40° C. and a pH lower than 3 or greater than 6", "setting": "[2]", "value": "not stable"}]}
